Assay results taken from patent US20030176314A1, “Compounds for the treatment of pain” (priority 2001, published 2003).
Where two headings read alike, the source gives them in different places. Blank lines part the entries; values can stand above or below the compound they belong to.

Tests used:
rat NPFF2 receptor [1] = biological target: T1, rat NPFF2 receptor (Rattus norvegicus, UniProt Q9EQD2); experiment: Competition binding at cloned rat NPFF2 receptor ([125I]1DMeNPFF displacement)
T1 construct: The full-length NPFF2 was amplified from rat spinal cord cDNA; expressed in transfected cells; host or cells: not given
T1 sequence (Q9EQD2 whole entry): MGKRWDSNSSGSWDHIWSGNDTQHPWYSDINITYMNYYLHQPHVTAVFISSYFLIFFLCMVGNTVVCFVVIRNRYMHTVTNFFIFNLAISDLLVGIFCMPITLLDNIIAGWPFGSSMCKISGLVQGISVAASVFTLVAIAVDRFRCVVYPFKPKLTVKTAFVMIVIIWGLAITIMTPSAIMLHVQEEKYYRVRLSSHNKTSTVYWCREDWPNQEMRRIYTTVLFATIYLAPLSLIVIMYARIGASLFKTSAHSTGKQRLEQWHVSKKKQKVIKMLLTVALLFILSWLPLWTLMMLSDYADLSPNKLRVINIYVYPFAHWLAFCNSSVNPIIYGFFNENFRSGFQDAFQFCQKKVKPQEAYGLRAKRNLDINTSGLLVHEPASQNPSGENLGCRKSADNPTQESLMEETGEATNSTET
Method: (§1) Transfected cells from culture flasks are scraped into 5 ml of 20 mM Tris-HCl, 5 mM EDTA, pH 7.5, and lysed by sonication. The cell lysates are centrifuged at 1000 rpm for 5 min. at 4° C., and the supernatant is centrifuged at 30,000×g for 20 min. at 4° C. […] Optimal membrane suspension dilutions, defined as the protein concentration required to bind less than 10% of the added radioligand, […], unlabeled compounds, and binding buffer to a final volume of 250 μl. In equilibrium saturation binding assays membrane preparations are incubated in the presence of increasing concentrations of [^3H]-labeled compound.
(§2) Competition assay: 50 pM radioligand, 10-12 points. Binding reaction mixtures are incubated for 2 hr at 25° C., and the reaction stopped by filtration through a double layer of GF filters treated with 0.1% polyethyleneimine, using a cell harvester. Wash buffer: 50 mM Tris-HCl, 0.1% BSA. Radioactivity may be measured by scintillation counting and data are analyzed by a computerized non-linear regression program. Non-specific binding is defined as the amount of radioactivity remaining after incubation of membrane protein in the presence of 1 μM final concentration […]. Protein concentration may be measured by the Bradford method using Bio-Rad Reagent, with bovine serum albumin as a standard.

rat NPFF1 receptor [2] = biological target: T2, rat NPFF1 receptor (Rattus norvegicus, UniProt Q9EP86); experiment: Functional assay (agonist potency, intrinsic activity) at cloned rat NPFF1 receptor; assay type: cell-based; details: for rNPFF1 IA: Table 7, intrinsic activity; for Functional Activity rNPFF1 I.A. %: percent of maximum response elicited by neuropeptide FF; for classification as agonist or antagonist at the NPFF1 receptor: agonist: IA>15%, antagonist: Ki≦1.2 mM and IA≦15% at the rat cloned NPFF receptors
T2 construct: expressed in transfected cells; host or cells: not given
T2 sequence (Q9EP86 whole entry): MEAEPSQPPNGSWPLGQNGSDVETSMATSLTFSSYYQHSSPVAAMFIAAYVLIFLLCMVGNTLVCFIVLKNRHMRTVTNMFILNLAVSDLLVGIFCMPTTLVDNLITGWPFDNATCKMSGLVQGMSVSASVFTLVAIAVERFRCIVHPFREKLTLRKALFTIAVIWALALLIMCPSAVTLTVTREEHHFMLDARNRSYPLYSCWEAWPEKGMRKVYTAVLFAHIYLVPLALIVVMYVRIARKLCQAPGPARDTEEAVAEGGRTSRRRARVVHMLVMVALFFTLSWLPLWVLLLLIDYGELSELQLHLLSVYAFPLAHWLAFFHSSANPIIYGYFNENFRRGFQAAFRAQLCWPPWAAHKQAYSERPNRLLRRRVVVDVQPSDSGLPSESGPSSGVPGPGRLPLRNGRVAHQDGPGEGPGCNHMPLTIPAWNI

rat NPFF2 receptor [3] = biological target: T1, rat NPFF2 receptor; experiment: Functional assay (agonist potency, intrinsic activity) at cloned rat NPFF2 receptor; assay type: cell-based; details: for rNPFF2 IA: Table 7, intrinsic activity; for Functional Activity rNPFF2 I.A. %: percent of maximum response elicited by neuropeptide FF; for classification as agonist or antagonist at the NPFF2 receptor: agonist: IA>15%, antagonist: Ki≦1.2 mM and IA≦15% at the rat cloned NPFF receptors
rat NPFF1 receptor [4] = biological target: T2, rat NPFF1 receptor; experiment: Competition binding at cloned rat NPFF1 receptor ([125I]1DMeNPFF displacement)
Method: as §1, with “radioligand, are” for “radioligand,”, “In equilibrium saturation binding assays membrane preparations are incubated in the presence of increasing concentrations of [^3H]-labeled compound.” left out
as §2

[5] = biological target: T3, norepinephrine (NE) transporter (Rattus norvegicus, UniProt Q63380); experiment: Binding at native norepinephrine transporter (NE uptake); details: Table 8
T3 construct: evaluated at native, tissue-derived transporters; from tissue
T3 sequence (Q63380 1-617): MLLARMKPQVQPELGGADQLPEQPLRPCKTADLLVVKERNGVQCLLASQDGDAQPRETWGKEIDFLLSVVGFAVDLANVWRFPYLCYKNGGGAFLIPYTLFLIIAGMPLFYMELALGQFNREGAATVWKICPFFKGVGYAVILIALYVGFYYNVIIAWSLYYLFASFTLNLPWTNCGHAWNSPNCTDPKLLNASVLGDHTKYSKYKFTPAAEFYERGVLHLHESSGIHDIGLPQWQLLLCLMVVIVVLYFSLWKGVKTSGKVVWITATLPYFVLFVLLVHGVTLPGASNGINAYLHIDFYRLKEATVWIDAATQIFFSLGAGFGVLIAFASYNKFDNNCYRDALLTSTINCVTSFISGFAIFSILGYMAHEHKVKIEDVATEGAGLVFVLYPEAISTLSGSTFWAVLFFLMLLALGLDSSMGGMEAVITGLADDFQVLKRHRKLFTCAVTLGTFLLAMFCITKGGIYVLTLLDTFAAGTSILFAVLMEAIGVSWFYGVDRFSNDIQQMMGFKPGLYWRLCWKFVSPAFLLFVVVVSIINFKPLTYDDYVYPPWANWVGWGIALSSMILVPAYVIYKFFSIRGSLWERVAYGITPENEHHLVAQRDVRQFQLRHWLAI
Method: (§3) Transporters: The binding properties of compounds were evaluated at native, tissue-derived transporters, namely serotonin (5HT) transporter and norepinephrine (NE) transporter, according to protocols described in Owens (1997), the disclosure of which is hereby incorporated by reference in its entirety into this application.
(§4) The binding affinity (Ki) of these compounds were tested according to the protocols described herein at the following receptors; human α1A, α1B, α1D, α2A, α2B, and α2C adrenergic receptors; human Y1, Y2, Y4, and Y5 receptors; and N-Methyl-D-aspartic acid (NMDA) receptor channels. The binding interactions of these compounds were additionally tested at the norepinephrine (NE) transporter (NE uptake) and serotonin (5-hydroxytryptamine (5HT)) transporter (5HT uptake) according to protocols described herein

[6] = biological target: T4, serotonin (5HT) transporter (Rattus norvegicus, UniProt P31652); experiment: Binding at native serotonin transporter (5HT uptake); details: Table 8
T4 construct: evaluated at native, tissue-derived transporters; from tissue
T4 sequence (P31652 whole entry): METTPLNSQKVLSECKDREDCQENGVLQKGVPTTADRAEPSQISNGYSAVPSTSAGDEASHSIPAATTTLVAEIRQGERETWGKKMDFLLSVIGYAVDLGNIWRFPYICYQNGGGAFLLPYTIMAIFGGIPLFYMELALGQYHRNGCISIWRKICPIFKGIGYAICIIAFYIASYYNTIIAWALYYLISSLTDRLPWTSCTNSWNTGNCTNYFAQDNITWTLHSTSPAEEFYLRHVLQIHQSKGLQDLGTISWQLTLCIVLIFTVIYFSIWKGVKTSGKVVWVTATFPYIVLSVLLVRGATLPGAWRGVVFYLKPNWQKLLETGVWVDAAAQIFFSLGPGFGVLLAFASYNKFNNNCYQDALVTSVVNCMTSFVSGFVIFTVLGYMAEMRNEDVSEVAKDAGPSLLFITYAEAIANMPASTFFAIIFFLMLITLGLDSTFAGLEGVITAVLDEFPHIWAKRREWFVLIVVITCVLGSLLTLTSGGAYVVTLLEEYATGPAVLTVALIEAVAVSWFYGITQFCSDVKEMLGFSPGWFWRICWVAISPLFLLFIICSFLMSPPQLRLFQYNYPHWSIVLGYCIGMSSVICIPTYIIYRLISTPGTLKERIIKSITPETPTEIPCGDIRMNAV
Method: as §3, §4

[7] = Table 3, recombinant rat NPFF2, read-out: rNPFF2 Ki
[8] = Table 7, agonist potency, read-out: rNPFF1 EC50
[9] = Table 7, agonist potency, read-out: rNPFF2 EC50
[10] = Table 3, recombinant rat NPFF1, read-out: rNPFF1 Ki
[11] = Table 4, read-out: Ki Values rNPFF2
[12] = Table 4, read-out: Functional Activity rNPFF1 EC50
[13] = Table 4, read-out: Functional Activity rNPFF2 EC50
[14] = Table 4, read-out: Ki Values rNPFF1
[15] = Table 5, D-Arg- or D-Phe-containing compounds, read-out: Ki Values rNPFF2
[16] = Table 5, read-out: Functional Activity rNPFF1 EC50
[17] = Table 5, read-out: Functional Activity rNPFF2 EC50
[18] = Table 5, D-Arg- or D-Phe-containing compounds, read-out: Ki Values rNPFF1

Ki (rat NPFF2 receptor [1]; [7]): 3.15 µM
EC50 (rat NPFF1 receptor [2]; [8]): > 10 µM
rNPFF1 IA (rat NPFF1 receptor [2]): Inactive
EC50 (rat NPFF2 receptor [3]; [9]): > 10 µM
rNPFF2 IA (rat NPFF2 receptor [3]): 31% NPFF
Ki (rat NPFF1 receptor [4]; [10]): 0.606 µM
Compound: CCc1nc(NC(=N)N)nc2ccc(C)cc12 [Compound 1027A]

Ki (rat NPFF2 receptor [1]; [15]): 2.69 µM
Functional Activity rNPFF1 I.A. % (rat NPFF1 receptor [2]; Table 5): 30%
EC50 (rat NPFF1 receptor [2]; [16]): 0.477 µM
Functional Activity rNPFF2 I.A. % (rat NPFF2 receptor [3]; Table 5): 86%
EC50 (rat NPFF2 receptor [3]; [17]): > 3.16 µM
Ki (rat NPFF1 receptor [4]; [18]): 0.399 µM
Compound: N=C(N)NCCC[C@H](NS(=O)(=O)c1ccc2ccccc2c1)C(=O)N[C@H](Cc1ccccc1)C(N)=O [Compound 1029B]

Ki (rat NPFF2 receptor [1]; [11]): > 10 µM
Functional Activity rNPFF1 I.A. % (rat NPFF1 receptor [2]; Table 4): 102%
classification as agonist or antagonist at the NPFF1 receptor (rat NPFF1 receptor [2]): agonists
Functional Activity rNPFF2 I.A. % (rat NPFF2 receptor [3]; Table 4): 52%
EC50 (rat NPFF2 receptor [3]; [13]): > 3.16 µM
classification as agonist or antagonist at the NPFF2 receptor (rat NPFF2 receptor [3]): agonists
Compound: COc1ccc(C)cc1S(=O)(=O)N[C@@H](CCCNC(=N)N)C(=O)N[C@@H](Cc1ccccc1)C(N)=O [Compound 2003B]

Ki (rat NPFF2 receptor [1]; [15]): 2.86 µM
Functional Activity rNPFF1 I.A. % (rat NPFF1 receptor [2]; Table 5): 1%
EC50 (rat NPFF1 receptor [2]; [16]): > 10 µM
classification as agonist or antagonist at the NPFF1 receptor (rat NPFF1 receptor [2]): antagonist
Functional Activity rNPFF2 I.A. % (rat NPFF2 receptor [3]; Table 5): 79%
EC50 (rat NPFF2 receptor [3]; [17]): 0.378 µM
classification as agonist or antagonist at the NPFF2 receptor (rat NPFF2 receptor [3]): agonist
Ki (rat NPFF1 receptor [4]; [18]): 0.046 µM
Compound: N=C(N)NCCC[C@@H](NS(=O)(=O)c1cccc2ccccc12)C(=O)N[C@@H](Cc1ccccc1)C(N)=O [Compound 3001B]

Further lines, the compound ahead of its results:

Compound: Cc1nc(NC(=N)N)nc2ccc(OCCCCCOc3ccccc3)cc12 [Compound 1005A, N-4-methyl-6-[(5-phenoxypentyl)oxy]-2-quinazolinylguanidine]
Ki (rat NPFF2 receptor [1]; [7]): 2.14 µM
EC50 (rat NPFF1 receptor [2]; [8]): > 10 µM
rNPFF1 IA (rat NPFF1 receptor [2]): Inactive
EC50 (rat NPFF2 receptor [3]; [9]): 3.16 µM
rNPFF2 IA (rat NPFF2 receptor [3]): 21% NPFF
Ki (rat NPFF1 receptor [4]; [10]): 0.316 µM

Compound: Cc1nc(NC(=N)N)nc2ccc(Cl)cc12 [Compound 1013A, N-(6-chloro-4-methyl-2-quinazolinyl)guanidine]
Ki [5]: 41.2 µM
Ki [6]: 2.02 µM
rNPFF2 IA (rat NPFF2 receptor [3]): 52% NPFF

Compound: COc1ccc(Br)cc1S(=O)(=O)N[C@@H](CCCNC(=N)N)C(=O)N[C@@H](Cc1ccccc1)C(N)=O [Compound 1025B]
Ki (rat NPFF2 receptor [1]; [11]): 4.12 µM
Functional Activity rNPFF1 I.A. % (rat NPFF1 receptor [2]; Table 4): 78%
EC50 (rat NPFF1 receptor [2]; [12]): 0.596 µM
Functional Activity rNPFF2 I.A. % (rat NPFF2 receptor [3]; Table 4): 33%
EC50 (rat NPFF2 receptor [3]; [13]): > 3.16 µM
Ki (rat NPFF1 receptor [4]; [14]): 0.328 µM

Compound: Cc1ccc2c(C)nc(NC(=N)N)nc2c1 [Compound 3001A, N-(4,7-dimethyl-2-quinazolinyl)guanidine]
classification as agonist or antagonist at the NPFF1 receptor (rat NPFF1 receptor [2]): antagonists
Ki [5]: 21.4 µM
Ki [6]: 22.6 µM
classification as agonist or antagonist at the NPFF2 receptor (rat NPFF2 receptor [3]): antagonists

Compound: N1-[(1R)-2-Amino-1-benzyl-2-oxoethyl]-(2S)-{[amino(imino)methyl]amino}-2-[2, 6-difluorophenyl)sulfonyl]amino]pentanamide [Compound 1032B]
Ki (rat NPFF2 receptor [1]; [15]): > 10 µM
Functional Activity rNPFF1 I.A. % (rat NPFF1 receptor [2]; Table 5): 47%
EC50 (rat NPFF1 receptor [2]; [16]): 0.644 µM
Functional Activity rNPFF2 I.A. % (rat NPFF2 receptor [3]; Table 5): 61%
EC50 (rat NPFF2 receptor [3]; [17]): 2.76 µM
Ki (rat NPFF1 receptor [4]; [18]): 1.29 µM

Compound: N1-[(1R)-2-Amino-1-benzyl-2-oxoethyl]-(2S)-{[amino(imino)methyl]amino}-2-[2-bromophenyl) sulfonyl]amino}pentanamide [Compound 1031B]
Ki (rat NPFF2 receptor [1]; [15]): 6.03 µM
Functional Activity rNPFF1 I.A. % (rat NPFF1 receptor [2]; Table 5): 32%
EC50 (rat NPFF1 receptor [2]; [16]): 0.856 µM
Functional Activity rNPFF2 I.A. % (rat NPFF2 receptor [3]; Table 5): 24%
EC50 (rat NPFF2 receptor [3]; [17]): 1.57 µM
Ki (rat NPFF1 receptor [4]; [18]): 2.57 µM

Compound: N1-[(1S)-2-Amino-1-benzyl-2-oxoethyl]-(2R)-{[amino(imino)methyl]amino}-2-2-bromophenyl) sulfonyl]amino}pentanamide [Compound 1030B]
Ki (rat NPFF2 receptor [1]; [15]): 6.2 µM
Functional Activity rNPFF1 I.A. % (rat NPFF1 receptor [2]; Table 5): 35%
EC50 (rat NPFF1 receptor [2]; [16]): 0.655 µM
Functional Activity rNPFF2 I.A. % (rat NPFF2 receptor [3]; Table 5): 71%
EC50 (rat NPFF2 receptor [3]; [17]): 1.64 µM
Ki (rat NPFF1 receptor [4]; [18]): 0.251 µM

Compound: N1-[(1S)-2-Amino-1-benzyl-2-oxoethyl]-(2S)-{[amino(imino)methyl]amino}-2-[pentafluorophenyl)sulfonyl]amino}pentanamide [Compound 1024B]
Ki (rat NPFF2 receptor [1]; [11]): 5.4 µM
Functional Activity rNPFF1 I.A. % (rat NPFF1 receptor [2]; Table 4): 69%
EC50 (rat NPFF1 receptor [2]; [12]): 0.72 µM
Functional Activity rNPFF2 I.A. % (rat NPFF2 receptor [3]; Table 4): 43%
EC50 (rat NPFF2 receptor [3]; [13]): > 3.16 µM
Ki (rat NPFF1 receptor [4]; [14]): 0.486 µM
